Test results from patent publication US11034935B2, “Liver organoid, uses thereof and culture method for obtaining them” (Koninklijke Nederlandse Akademie van Wetenschappen, priority 2010, dated 2021).
Like-named read-outs stand apart in the source and are kept apart here.

Assays:
[1] = test system: human biliary-derived cultures; assay: Expansion of human biliary-derived liver cultures; type: cell-based; conditions: 500 uM added to expansion medium (ERFHNic and ENRWFHNic)
Wnt signalling = Wnt signalling reporter (LacZ) in liver of Axin2-LacZ mice; conditions: after injection
Lgr5 = conditions: Lgr5-LacZ knockin mice; for Lgr5 reporter expression in the liver: 0.8 ml/kg injection
liver organoid cultures = assay: Hepatocyte differentiation of liver organoid cultures by added compounds, RT-PCR of hepatocyte markers; conditions: titration, hepatocyte marker expression 7 days

## Cc1cccc(-c2nn(C(=S)Nc3ccccc3)cc2-c2ccnc3ccccc23)n1 [A83-01, 3-(6-Methyl-2-pyridinyl)-N-phenyl-4-(4-quinolinyl)-1H-pyrazole-1-carbothioamide]
[1]
  expansion of human biliary-derived cultures: able to expand human biliary-derived cultures

## ClC(Cl)(Cl)Cl [CC14, carbon tetrachloride]
Wnt signalling; listed as CCL4
  Wnt signalling in the liver: Wnt signalling is activated
Lgr5
  time of peak Lgr5 reporter expression after injury: 6.5 days
  Lgr5 reporter expression in the liver: induces Lgr5 expression in the liver at sites of active regeneration
Lgr5; listed as CCL4
  Lgr5 reporter expression in the liver: upregulation of Lgr5

## C[C@H](NC(=O)Cc1cc(F)cc(F)c1)C(=O)N[C@H](C(=O)OC(C)(C)C)c1ccccc1 [DAPT]
Liver organoid cultures
  maximal concentration efficiency: 10 µM

B1: R-spondin1: Wnt agonist, secreted protein of the R-spondin family; Lgr5 ligand (protein, UniProt Q2MKA7 21-263, looked up)
R-spondin-1: SRGIKGKRQRRISAEGSQACAKGCELCSEVNGCLKCSPKLFILLERNDIRQVGVCLPSCPPGYFDARNPDMNKCIKCKIEHCEACFSHNFCTKCKEGLYLHKGRCYPACPEGSSAANGTMECSSPAQCEMSEWSPWGPCSKKQQLCGFRRGSEERTRRVLHAPVGDHAACSDTKETRRCTVRRVPCPEGQKRRKGGQGRRENANRNLARKESKEAGAGSRRRKGQQQQQQQGTVGPLTSAGPA
Wnt signalling
  Wnt signalling in the liver: liver cells are responsive to Wnt stimulation
Wnt signalling; listed as R-spondin
  Wnt signalling in the liver: upregulation of Wnt signalling expression in the liver ducts
